# Results taken from ChEMBL document CHEMBL1201861, “Genomics of Drug Sensitity in Cancer screening data, Wellcome Trust Sanger Institute”.
# pIC50: −log10 of the molar value.
# What was measured:
# Experiment in all cases: cells
# Conditions in all cases: Homo sapiens
# CTB-1 = assay type: functional, cell-based
# Description: SANGER: Inhibition of human CTB-1 cell growth in a cell viability assay.
# CTV-1 = assay type: functional, cell-based;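 also: growth inhibition of the cell line, read out with a cell viability assay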
# Description: SANGER: Inhibition of human CTV-1 cell growth in a cell viability assay.
# Calu-6 = assay type: functional, cell-based;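 also: growth of human Calu-6 cells, read out by a cell viability assay, IC50 marking inhibition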
# Description: SANGER: Inhibition of human Calu-6 cell growth in a cell viability assay.
# D283 Med = assay type: functional, cell-based
# Description: SANGER: Inhibition of human D-283MED cell growth in a cell viability assay.
# D-502MG = assay type: functional, cell-based
# Description: SANGER: Inhibition of human D-502MG cell growth in a cell viability assay.
# DMS-114 = assay type: functional, cell-based
# DMS-79 = assay type: functional, cell-based;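 also: growth inhibition measured with a cell viability assay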
# Description: SANGER: Inhibition of human DMS-79 cell growth in a cell viability assay.
# DU-4475 = assay type: functional, cell-based
# Description: SANGER: Inhibition of human DU-4475 cell growth in a cell viability assay.
# EC-GI-10 = assay type: functional, cell-based
# Description: SANGER: Inhibition of human EC-GI-10 cell growth in a cell viability assay.
# ES3 = assay type: functional, cell-based;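 also: growth inhibition of ES3 cells, read out with a cell viability assay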
# Description: SANGER: Inhibition of human ES3 cell growth in a cell viability assay.
# ES5 = assay type: functional, cell-based;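 also: growth inhibition of human ES5 cells, read out by a cell viability assay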
# Description: SANGER: Inhibition of human ES5 cell growth in a cell viability assay.
# EW-24 = assay type: functional, cell-based;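 also: human EW-24 cancer cell line, growth inhibition read out via a cell viability assay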
# Description: SANGER: Inhibition of human EW-24 cell growth in a cell viability assay.
# EOL1 = assay type: functional, cell-based;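 also: growth inhibition of EoL-1 cells, read out by a cell viability assay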
# Description: SANGER: Inhibition of human EoL-1-cell cell growth in a cell viability assay.
# GCIY = assay type: functional, cell-based;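 also: growth inhibition of the human GCIY cell line, read out by a cell viability assay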
# Description: SANGER: Inhibition of human GCIY cell growth in a cell viability assay.
# GOTO = assay type: functional, cell-based;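 also: growth inhibition of GOTO cells, read out by a cell viability assay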
# Description: SANGER: Inhibition of human GOTO cell growth in a cell viability assay.
# HCC1187 = assay type: functional, cell-based;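 also: growth inhibition of HCC1187 cells, read out with a cell viability assay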
# Description: SANGER: Inhibition of human HCC1187 cell growth in a cell viability assay.
# HCE-4 = assay type: functional, cell-based;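 also: cell viability assay measuring inhibition of growth in the human HCE-4 cell line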
# Description: SANGER: Inhibition of human HCE-4 cell growth in a cell viability assay.
# HCE-T = assay type: functional, cell-based;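 also: cell viability assay read-out, reporting inhibition of HCE-T cell growth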
# Description: SANGER: Inhibition of human HCE-T cell growth in a cell viability assay.
# HOP-62 = assay type: functional, cell-based;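 also: cell growth inhibition determined with a viability assay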
# Description: SANGER: Inhibition of human HOP-62 cell growth in a cell viability assay.
# HuTu80 = assay type: functional, cell-based, HUTU-80;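 also: growth inhibition of HuTu80 human cells, determined with a cell viability readout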
# Description: SANGER: Inhibition of human HUTU-80 cell growth in a cell viability assay.
# JVM-2 = assay type: functional, cell-based;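 also: growth inhibition of JVM-2 cells determined by a cell viability assay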
# Description: SANGER: Inhibition of human JVM-2 cell growth in a cell viability assay.
# JVM-3 = assay type: functional, cell-based;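 also: growth inhibition of human JVM-3 cells, read out with a cell viability assay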
# Description: SANGER: Inhibition of human JVM-3 cell growth in a cell viability assay.
# KALS-1 = assay type: functional, cell-based;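 also: growth inhibition of KALS-1 cells, determined with a cell viability assay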
# Description: SANGER: Inhibition of human KALS-1 cell growth in a cell viability assay.
# KARPAS-45 = assay type: functional, cell-based;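 also: inhibition of cell line growth, read out through a viability assay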
# Description: SANGER: Inhibition of human KARPAS-45 cell growth in a cell viability assay.
# KG-1 = assay type: functional, cell-based;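 also: growth inhibition of KG-1 cells, read out by a cell viability assay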
# Description: SANGER: Inhibition of human KG-1 cell growth in a cell viability assay.
# KGN = assay type: functional, cell-based;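 also: growth inhibition of KGN cells, read out with a cell viability assay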
# Description: SANGER: Inhibition of human KGN cell growth in a cell viability assay.
# KINGS-1 = assay type: functional, cell-based;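 also: cell viability assay measuring suppression of KINGS-1 cell growth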
# Description: SANGER: Inhibition of human KINGS-1 cell growth in a cell viability assay.
# KLE = assay type: functional, cell-based;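 also: growth inhibition of human KLE cells, read out with a cell viability assay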
# Description: SANGER: Inhibition of human KLE cell growth in a cell viability assay.
# KNS-42 = assay type: functional, cell-based;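 also: growth inhibition of KNS-42 cells, read out with a cell viability assay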
# Description: SANGER: Inhibition of human KNS-42 cell growth in a cell viability assay.
# KP-N-YS = assay type: functional, cell-based;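 also: cell viability assay measuring inhibition of cell line growth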
# Description: SANGER: Inhibition of human KP-N-YS cell growth in a cell viability assay.
# KS-1 = assay type: functional, cell-based;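 also: growth inhibition of KS-1 cells, read out with a cell viability assay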
# Description: SANGER: Inhibition of human KS-1 cell growth in a cell viability assay.
# KURAMOCHI = assay type: functional, cell-based;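 also: growth inhibition of KURAMOCHI cells, read out with a cell viability assay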
# Description: SANGER: Inhibition of human KURAMOCHI cell growth in a cell viability assay.
# L-428 = assay type: functional, cell-based
# Description: SANGER: Inhibition of human L-428 cell growth in a cell viability assay.
# LB1047-RCC = assay type: functional, cell-based;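 also: inhibition of cell growth, determined with a cell viability assay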
# Description: SANGER: Inhibition of human LB1047-RCC cell growth in a cell viability assay.
# LS-1034 = assay type: functional, cell-based
# Description: SANGER: Inhibition of human LS-1034 cell growth in a cell viability assay.
# MHH-PREB-1 = assay type: functional, cell-based;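 also: cell viability assay measuring inhibition of proliferation of human MHH-PREB-1 cells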
# Description: SANGER: Inhibition of human MHH-PREB-1 cell growth in a cell viability assay.
# ML-2 = assay type: functional, cell-based;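 also: growth inhibition of ML-2 cells, measured with a cell viability readout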
# Description: SANGER: Inhibition of human ML-2 cell growth in a cell viability assay.
# MN-60 = assay type: functional, cell-based;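 also: growth inhibition of the MN-60 cell line, determined with a cell viability assay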
# Description: SANGER: Inhibition of human MN-60 cell growth in a cell viability assay.
# MS-1 = assay type: functional, cell-based
# Description: SANGER: Inhibition of human MS-1 cell growth in a cell viability assay.
# MSTO-211H = assay type: functional, cell-based
# Description: SANGER: Inhibition of human MSTO-211H cell growth in a cell viability assay.
# NCI-H1155 = assay type: functional, cell-based;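 also: cell growth inhibition measured by a viability assay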
# Description: SANGER: Inhibition of human NCI-H1155 cell growth in a cell viability assay.
# NCI-H1355 = assay type: functional, cell-based;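 also: growth inhibition of human NCI-H1355 cells, read out by a cell viability assay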
# Description: SANGER: Inhibition of human NCI-H1355 cell growth in a cell viability assay.
# NCI-H1648 = assay type: functional, cell-based;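 also: cell viability assay measuring inhibition of NCI-H1648 cell growth, from the Sanger screening data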
# Description: SANGER: Inhibition of human NCI-H1648 cell growth in a cell viability assay.
# NCI-H209 = assay type: functional, cell-based;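 also: growth inhibition of human NCI-H209 cells, measured by a cell viability assay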
# Description: SANGER: Inhibition of human NCI-H209 cell growth in a cell viability assay.
# NCI-H510A = assay type: functional, cell-based;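 also: growth inhibition of NCI-H510A cells, read out with a cell viability assay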
# Description: SANGER: Inhibition of human NCI-H510A cell growth in a cell viability assay.
# NOMO-1 = assay type: functional, cell-based;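 also: growth inhibition of human NOMO-1 cells measured by a cell viability assay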
# Description: SANGER: Inhibition of human NOMO-1 cell growth in a cell viability assay.
# NTERA-2-cl-D1 = assay type: functional, cell-based;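 also: inhibition of cell growth, measured with a cell viability assay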
# Description: SANGER: Inhibition of human NTERA-S-cl-D1 cell growth in a cell viability assay.
# OMC-1 = assay type: functional, cell-based;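 also: growth inhibition of the OMC-1 cell line, measured by a cell viability assay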
# Description: SANGER: Inhibition of human OMC-1 cell growth in a cell viability assay.
# ONS-76 = assay type: functional, cell-based;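 also: growth inhibition of human ONS-76 cells, read out with a cell viability assay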
# Description: SANGER: Inhibition of human ONS-76 cell growth in a cell viability assay.
# OS-RC-2 = assay type: functional, cell-based;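 also: growth inhibition of human OS-RC-2 cells, measured by a cell viability assay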
# Description: SANGER: Inhibition of human OS-RC-2 cell growth in a cell viability assay.
# RPMI-8866 = assay type: functional, cell-based
# Description: SANGER: Inhibition of human RPMI-8866 cell growth in a cell viability assay.
# SCC-15 = assay type: functional, cell-based;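 also: growth inhibition of SCC-15 cells, read out with a cell viability assay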
# Description: SANGER: Inhibition of human SCC-15 cell growth in a cell viability assay.
# SF-539 = assay type: functional, cell-based;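 also: Read-out is a cell viability assay, with IC50 reflecting inhibition of cell growth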
# Description: SANGER: Inhibition of human SF539 cell growth in a cell viability assay.
# SJSA-1 = assay type: functional, cell-based;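 also: growth inhibition of human SJSA-1 cells, read out through a cell viability measurement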
# Description: SANGER: Inhibition of human SJSA-1 cell growth in a cell viability assay.
# SK-MEL-1 = assay type: functional, cell-based;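 also: growth inhibition of human SK-MEL-1 cells, read out by a cell viability assay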
# Description: SANGER: Inhibition of human SK-MEL-1 cell growth in a cell viability assay.
# SK-N-DZ = assay type: functional, cell-based;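 also: growth inhibition of the cancer cell line, read out through a viability assay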
# Description: SANGER: Inhibition of human SK-N-DZ cell growth in a cell viability assay.
# SK-N-FI = assay type: functional, cell-based;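 also: cell viability assay measuring growth inhibition of human SK-N-FI cells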
# Description: SANGER: Inhibition of human SK-N-FI cell growth in a cell viability assay.
# SK-NEP-1 = assay type: functional, cell-based;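 also: growth inhibition of human SK-NEP-1 cells, read out by a cell viability assay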
# Description: SANGER: Inhibition of human SK-NEP-1 cell growth in a cell viability assay.
# SNB-75 = assay type: functional, cell-based;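 also: cell viability assay measuring growth inhibition of human SNB-75 cells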
# Description: SANGER: Inhibition of human SNB75 cell growth in a cell viability assay.
# SW 962 = assay type: functional, cell-based;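 also: growth inhibition of human SW962 cells, read out by a cell viability assay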
# Description: SANGER: Inhibition of human SW962 cell growth in a cell viability assay.
# A3-KAW = assay type: functional, cell-based;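 also: growth inhibition of human A3-KAW cells, read out with a cell viability assay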
# Description: SANGER: Inhibition of human A3-KAW cell growth in a cell viability assay.
# A388 = assay type: functional, cell-based
# Description: SANGER: Inhibition of human A388 cell growth in a cell viability assay.
# C8166 = assay type: functional, cell-based
# Description: SANGER: Inhibition of human C8166 cell growth in a cell viability assay.
# TE-11 = assay type: functional, cell-based
# Description: SANGER: Inhibition of human TE-11 cell growth in a cell viability assay.
# TK-10 = assay type: functional, cell-based
# Description: SANGER: Inhibition of human TK10 cell growth in a cell viability assay.
# CAS-1 = assay type: functional, cell-based
# Description: SANGER: Inhibition of human CAS-1 cell growth in a cell viability assay.
compound,measurement,setting,value
COc1cc(Nc2c(C#N)cnc3cc(OCCCN4CCN(C)CC4)c(OC)cc23)c(Cl)cc1Cl [BOSUTINIB],pIC50,CTB-1,6.26
same,pIC50,CTV-1,6.79
same,pIC50,Calu-6,< 5.70
same,pIC50,D283 Med,< 5.70
same,pIC50,D-502MG,< 5.70
same,pIC50,DMS-114,< 5.70
same,pIC50,DMS-79,< 5.70
same,pIC50,DU-4475,< 5.70
same,pIC50,EC-GI-10,< 5.70
same,pIC50,ES3,< 5.70
same,pIC50,ES5,5.73
same,pIC50,EW-24,< 5.70
same,pIC50,EOL1,6.38
same,pIC50,GCIY,< 5.70
same,pIC50,GOTO,< 5.70
same,pIC50,HCC1187,< 5.70
same,pIC50,HCE-4,< 5.70
same,pIC50,HCE-T,< 5.70
same,pIC50,HOP-62,< 5.70
same,pIC50,HuTu80,< 5.70
same,pIC50,JVM-2,< 5.70
same,pIC50,JVM-3,5.98
same,pIC50,KALS-1,< 5.70
same,pIC50,KARPAS-45,6.03
same,pIC50,KG-1,5.85
same,pIC50,KGN,< 5.70
same,pIC50,KINGS-1,< 5.70
same,pIC50,KLE,< 5.70
same,pIC50,KNS-42,< 5.70
same,pIC50,KP-N-YS,< 5.70
same,pIC50,KS-1,< 5.70
same,pIC50,KURAMOCHI,< 5.70
same,pIC50,L-428,< 5.70
same,pIC50,LB1047-RCC,5.91
same,pIC50,LS-1034,< 5.70
same,pIC50,MHH-PREB-1,< 5.70
same,pIC50,ML-2,< 5.70
same,pIC50,MN-60,< 5.70
same,pIC50,MS-1,< 5.70
same,pIC50,MSTO-211H,< 5.70
same,pIC50,NCI-H1155,< 5.70
same,pIC50,NCI-H1355,< 5.70
same,pIC50,NCI-H1648,< 5.70
same,pIC50,NCI-H209,6.39
same,pIC50,NCI-H510A,< 5.70
same,pIC50,NOMO-1,< 5.70
same,pIC50,NTERA-2-cl-D1,< 5.70
same,pIC50,OMC-1,< 5.70
same,pIC50,ONS-76,5.78
same,pIC50,OS-RC-2,< 5.70
same,pIC50,RPMI-8866,5.90
same,pIC50,SCC-15,5.79
same,pIC50,SF-539,< 5.70
same,pIC50,SJSA-1,< 5.70
same,pIC50,SK-MEL-1,< 5.70
same,pIC50,SK-N-DZ,< 5.70
same,pIC50,SK-N-FI,< 5.70
same,pIC50,SK-NEP-1,6.01
same,pIC50,SNB-75,< 5.70
same,pIC50,SW 962,< 5.70
same,pIC50,A3-KAW,6.10
same,pIC50,A388,< 5.70
same,pIC50,C8166,< 5.70
same,pIC50,TE-11,< 5.70
same,pIC50,TK-10,< 5.70
same,pIC50,CAS-1,< 5.70
Cc1nc(Nc2ncc(C(=O)Nc3c(C)cccc3Cl)s2)cc(N2CCN(CCO)CC2)n1 [DASATINIB],pIC50,CTB-1,< 5.89
same,pIC50,CTV-1,> 8.30
same,pIC50,Calu-6,< 5.89
same,pIC50,D283 Med,< 5.89
same,pIC50,D-502MG,5.91
same,pIC50,DMS-114,< 5.89
same,pIC50,DMS-79,< 5.89
same,pIC50,DU-4475,< 5.89
same,pIC50,EC-GI-10,< 5.89
same,pIC50,ES3,< 5.89
same,pIC50,ES5,< 5.89
same,pIC50,EW-24,6.11
same,pIC50,EOL1,> 8.30
same,pIC50,GCIY,7.02
same,pIC50,GOTO,< 5.89
same,pIC50,HCC1187,< 5.89
same,pIC50,HCE-4,6.58
same,pIC50,HCE-T,< 5.89
same,pIC50,HOP-62,7.74
same,pIC50,HuTu80,6.50
same,pIC50,JVM-2,< 5.89
same,pIC50,JVM-3,< 5.89
same,pIC50,KALS-1,7.02
same,pIC50,KARPAS-45,< 5.89
same,pIC50,KG-1,< 5.89
same,pIC50,KGN,7.71
same,pIC50,KINGS-1,6.78
same,pIC50,KLE,6.95
same,pIC50,KNS-42,5.91
same,pIC50,KP-N-YS,< 5.89
same,pIC50,KS-1,7.56
same,pIC50,KURAMOCHI,7.46
same,pIC50,L-428,< 5.89
same,pIC50,LB1047-RCC,8.00
same,pIC50,LS-1034,< 5.89
same,pIC50,MHH-PREB-1,6.13
same,pIC50,ML-2,< 5.89
same,pIC50,MN-60,< 5.89
same,pIC50,MS-1,< 5.89
same,pIC50,MSTO-211H,< 5.89
same,pIC50,NCI-H1155,< 5.89
same,pIC50,NCI-H1355,6.96
same,pIC50,NCI-H1648,7.70
same,pIC50,NCI-H209,< 5.89
same,pIC50,NCI-H510A,< 5.89
same,pIC50,NOMO-1,< 5.89
same,pIC50,NTERA-2-cl-D1,6.91
same,pIC50,OMC-1,< 5.89
same,pIC50,ONS-76,6.37
same,pIC50,OS-RC-2,7.69
same,pIC50,RPMI-8866,< 5.89
same,pIC50,SCC-15,< 5.89
same,pIC50,SF-539,< 5.89
same,pIC50,SJSA-1,< 5.89
same,pIC50,SK-MEL-1,< 5.89
same,pIC50,SK-N-DZ,< 5.89
same,pIC50,SK-N-FI,< 5.89
same,pIC50,SK-NEP-1,< 5.89
same,pIC50,SNB-75,7.35
same,pIC50,SW 962,6.95
same,pIC50,A3-KAW,6.01
same,pIC50,A388,7.29
same,pIC50,C8166,< 5.89
same,pIC50,TE-11,7.10
same,pIC50,TK-10,7.93
same,pIC50,CAS-1,< 5.89
